Assay results reported in ChEMBL document CHEMBL1649585, “Role of the Mycobacterium tuberculosis P55 efflux pump in intrinsic drug resistance, oxidative stress responses, and growth” (2009).

Columns and labels:
Assay type in all cases: functional
[1] = tested on: Mycobacterium tuberculosis; assay: Upregulation of p27 gene expression in Mycobacterium tuberculosis by microarray
[2] = tested on: Mycobacterium tuberculosis; assay: Upregulation of p55 gene expression Mycobacterium tuberculosis by microarray
[3] = tested on: Mycobacterium tuberculosis; assay: Downregulation of p27 gene expression Mycobacterium tuberculosis by microarray
[4] = tested on: Mycobacterium tuberculosis; assay: Downregulation of p55 gene expression Mycobacterium tuberculosis by microarray

Measured: fold change (FC)

O=[N+]([O-])c1cn2c(n1)OC[C@@H](OCc1ccc(OC(F)(F)F)cc1)C2 [PRETOMANID]
>=2: [1] | [2] | [3] | [4]

CC(C)/N=c1\cc2n(-c3ccc(Cl)cc3)c3ccccc3nc-2cc1Nc1ccc(Cl)cc1 [CLOFAZIMINE]
>=2: [1] | [2] | [3] | [4]

CO[C@@H]1[C@@H](OC(N)=O)[C@@H](O)[C@H](Oc2ccc3c(O)c(NC(=O)c4ccc(O)c(CC=C(C)C)c4)c(=O)oc3c2C)OC1(C)C [NOVOBIOCIN]
>=2: [1] | [2] | [3] | [4]

CC(C)[C@@H]1NC(=O)[C@H](C)OC(=O)[C@@H](C(C)C)NC(=O)[C@@H](C(C)C)OC(=O)[C@H](C(C)C)NC(=O)[C@H](C)OC(=O)[C@@H](C(C)C)NC(=O)[C@@H](C(C)C)OC(=O)[C@H](C(C)C)NC(=O)[C@H](C)OC(=O)[C@@H](C(C)C)NC(=O)[C@@H](C(C)C)OC1=O [VALINOMYCIN]
>=2: [1] | [2] | [3] | [4]

Oc1cc(Cl)ccc1Oc1ccc(Cl)cc1Cl [TRICLOSAN]
>=2: [1] | [2] | [3] | [4]

CN(C)CCCN1c2ccccc2Sc2ccc(Cl)cc21 [CHLORPROMAZINE]
>=2: [1] | [2] | [3] | [4]

CSc1ccc2c(c1)N(CCC1CCCCN1C)c1ccccc1S2 (configuration not stated) [THIORIDAZINE]
>=2: [1] | [2] | [3] | [4]

CC1=CC(=O)c2ccccc2C1=O [MENADIONE]
>=2: [1] | [2] | [3] | [4]
